Here are results for 17 compounds from patent US8877775B2, “Substituted 2-aza-bicyclo[2.2.2]octane-3-carboxylic acid (benzyl-cyano-methyl)-amides inhibitors of cathepsin C” (Boehringer Ingelheim International GmbH, priority 2013, dated 2014).

pIC50: −log10 of the molar value. A value given as a limit tells only on which side of the number the result lay.

A short description of series [1]: Metabolic stability with human liver microsomes. The format is in vitro ADME. Particulars: pH 7.6; pooled human liver microsomes, 37° C., 1 μM test compound, 1 mg/ml protein, NADPH; read-out: In vitro stability in human liver microsome incubations t1/2. The protocol: Determination of Metabolic Stability with Human Liver Microsomes
The metabolic degradation of the test compound is assayed at 37° C. with pooled human liver microsomes. The final incubation volume of 100 μl per time point contains TRIS buffer pH 7.6 (0.1 M), magnesium chloride (5 mM), microsomal protein (1 mg/ml) and the test compound at a final concentration of 1 μM. Following a short preincubation period at 37° C., the reactions are initiated by addition of beta-nicotinamide adenine dinucleotide phosphate, reduced form (NADPH, 1 mM) and terminated by transfering an aliquot into acetonitrile after different time points. Additionally, the NADPH-independent degradation is monitored in incubations without NADPH, terminated at the last time point. The [%] remaining test compound after NADPH independent incubation is reflected by the parameter c(control) (metabolic stability). The quenched incubations are pelleted by centrifugation (10′000 g, 5 min). An aliquot of the supernatant is assayed by LC-MS/MS for the amount of parent compound.
The half-life (t1/2 INVITRO) is determined by the slope of the semilogarithmic plot of the concentration-time profile. The intrinsic clearance (CL_[…]) is calculated by considering the amount of protein in the incubation: CL_[…][μl/min/mg protein]=(In 2/(half-life[min]*protein content[mg/ml]))*1′000. The half-life (t1/2 INVITRO) values of selected compounds in the metabolic stability assay described above are listed in the following table
A general note: Liver microsomes are vesicles of endoplasmic reticulum, rich in cytochrome P450 enzymes.

In series [2] the test system is Neutrophil elastase activity in U937 cells. Put plainly: Neutrophil elastase activity in U937 cytosolic lysate after incubation with test compound. The format is cell-based. Particulars: Homo sapiens, U-937; U937 cells incubated 48 hours with compound; NE activity in lysate; read-out: Reduction of NE-activity in U937 cells IC50. The protocol:
Determination of Neutrophil Elastase Activity in U937 Cytosolic Lysate Preparation after Incubation with Test Compound Materials: Optiplate 384F were purchased from PerkinElmer (Prod. No. #6007270). 24 well Nunclon cell culture plates (No. 142475) and 96 well plates (No. 267245) were from Nunc. Dimethylsulfoxid (DMSO) was from Sigma (Prod. No. D8418). Nonidet-P40 (NP40) was from USBiological (Prod. No. N3500) Substrate, specific for Neutrophil elastase, was from Bachem (MeOSuc-Ala-Ala-Pro-Val-AMC; Prod. No. I-1270). Human neutrophil elastase was from Calbiochem (Prod. No. 324681) Buffers: Tris-buffer (100 mM Tris; 1M NaCL; pH 7.5) Tris-buffer+HSA 0.1%; Human Serum Albumin from Calbiochem (Cat#. 126658) Serine-protease buffer (20 mM Tris; 100 mM NaCL; pH 7.5)+0.1% HSA Serine protease lysis buffer: 20 mM Tris-HCL; 100 mM NaCl pH 7.5; +0.2% Nonidet-P40; PBS: phosphate buffered saline, without Ca and Mg, from Gibco Cell Culture: U937 from ECACC (Cat. No. 85011440) cultured in suspension at 37° C. and 5% CO2. Cell density: 0.2-1 Mio. Cells/ml. Medium: RPMI1640 GlutaMAX (No. 61870) with 10% FCS from Gibco Cell Seeding and Treatment: Compounds in 100% DMSO were diluted in Medium (—FCS) with 10% DMSO and further diluted according to the experiment planned. 20 μl of the compound solution was transferred in the respective wells of the 24 well plate and diluted with 2 ml cell suspension/well containing 1′10^5 cells/ml (final concentration of DMSO=0.1%). Compound dilution factor=100 Compounds (up to 7 concentrations) were tested in triplicates with 3 wells for the DMSO 0.1% control, incubated for 48 hours without medium change at 37° C., 5% CO2 and 95% relative to humidity. Cell Harvesting and Cell Lysate:
Transfer the cell suspension in 2.2 ml Eppendorf cups. Separate cells from medium by centrifugation (400×g; 5 min; RT); discard the supernatant. Resuspend in 1 ml PBS; centrifugation (400×g; 5 min; RT); wash cells twice with PBS. Add 100 μl Serin lysis buffer (ice cold) to the cell pellet; resuspend the pellet and store on ice for 15 minutes. Remove debris by centrifugation at 15000×g for 10 min at 4° C. Transfer 80-100 μl lysate supernatant in 96 well plate and store immediately at −80° C.
Neutrophil Elastase Activity Assay:
Frozen lysates were thawn at 37° C. for 10 minutes and stored on ice. Protein content was determined with Bradford protein assay. Lysates were diluted to 0.2-0.5 mg/ml protein in serine protease buffer+HSA.
Standard: NE (100 μg/ml stocksolution in Tris-buffer; stored at −80° C.) was diluted in Tris-buffer+HSA to 750 ng/ml, and further serially diluted 1:2 for the standard curve.
Buffer, blank, standard and lysate samples were transferred into 384 well plate
The increase in fluorescence (Ex360 nm/Em 460 nm) is determined over 30 minutes with a Molecular Device Spectramax M5 Fluorescence Reader. Kinetic Reduction (Vmax units/sec); 4 vmax points. The amount of neutrophil elastase (ng/ml) is calculated using the standard curve and the Spectramax software. The result is interpolated to ng/mg lysate protein using excel formula functions. […] IC50 is calculated using Graphpad Prism; nonlinear fitting (log(inhibitor) vs. response—Variable slope). The IC50 value is interpolated as the concentration of test compound which leads to a neutrophil elastase activity reduction of 50% (relative to the DMSO-treated control).

Series [3] has as its target recombinant human Cathepsin K (Homo sapiens (Human), UniProt P43235). Put plainly: Inhibition of human Cathepsin K. The format is biochemical. To be noted: substrate Z-Gly-Pro-Arg-AMC 12.5 μM, 60 min, room temperature. From the text: Inhibition of Human Cathepsin K
Materials: Microtiterplates (Optiplate-384 F were purchased from PerkinElmer (Prod. No. 6007270). The substrate Z-Gly-Pro-Arg-AMC was from Biomol (Prod.-No. P-142). L-Cysteine (Prod. No. 168149) was from Sigma. Sodium actetate was from Merck (Prod.-No. 6268.0250), EDTA was from Fluka (Prod.-No. 03680). The inhibitor E-64 was purchased from Sigma (Prod.-No. E3132). The recombinant human Cathepsin K proenzyme was purchased from Biomol (Prod. No. SE-367). All other materials were of highest grade commercially available.
The following buffers were used: Activation buffer: 32.5 mM sodium acetate, adjusted to pH 3.5 with HCl; Assay buffer: 150 mM sodium acetate, 4 mM EDTA, 20 mM L-Cysteine, adjusted to pH 5.5 with HCl,
To activate the proenzyme, 5 μl procathepsin K were mixed with 1 ul activation buffer, and incubated at room temperature for 30 min.
5 μL test compound (final concentration 0.1 nM to 100 μM) in aqua bidest (containing 4% DMSO, final DMSO concentration 1%) were mixed with 10 uL of Cathepsin K in assay buffer (final concentration 2 ng/μL) and incubated for 10 min. Then 5 μL of substrate in assay buffer (final concentration 12.5 μM) were added. The plates were then incubated at room temperature for is 60 min. Then, the reaction was stopped by adding 10 μL of E64 in assay buffer (final concentration 1 μM). The fluorescence in the wells was determined using a Molecular Devices SpectraMax M5 Fluorescence Reader (Ex 360 nm, Em 460 nm).
Each assay microtiter plate contains wells with vehicle controls (1% DMSO in bidest) as reference for non-inhibited enzyme activity (100% Ctl; high values) and wells with inhibitor (E64 in bidest+1% DMSO, final concentration 1 μM) as controls for background fluorescence (0% Ctl; low values). The analysis of the data was performed by calculating the percentage of fluorescence in the presence of test compound in comparison to the fluorescence of the vehicle control after subtracting the background fluorescence: (RFU(sample)−RFU(background))*100/(RFU(control)−RFU(background))
Data from these calculations were used to generate IC50 values for inhibition of Cathepsin K, respectively.

For series [4], the target named is recombinant human DPPI (Cathepsin C) (Homo sapiens (Human), UniProt P53634). Put plainly: Inhibition of human DPPI (Cathepsin C). In kind it is biochemical. Particulars: substrate Gly-Arg-AMC 50 μM, 30 min, room temperature. The source says:
Inhibition of Human DPPI (Cathepsin C)
Materials: Microtiterplates (Optiplate-384 F) were purchased from PerkinElmer (Prod. No. 6007270). The substrate Gly-Arg-AMC was from Biotrend (Prod.-No. 808756 Custom peptide). Bovine serum albumin (BSA; Prod. No. A3059) and Dithiothreitol (DTT; Prod. No D0632) were from Sigma. TagZyme buffer was from Riedel-de-Haen (Prod.-No. 04269), NaCl was from Merck (Prod.-No. 1.06404.1000) and morpholinoethane sulfonic acid (MES), was from Serva (Prod.-No. 29834). The DPP1 inhibitor Gly-Phe-DMK was purchased from MP Biomedicals (Prod.-No. 03DK00625). The recombinant human DPPI was purchased from Prozymex. All other materials were of highest grade commercially available.
The following buffers were used: MES buffer: 25 mM MES, 50 mM NaCl, 5 mM DTT, adjusted to pH 6.0, containing 0.1% BSA; TAGZyme Buffer: 20 mM NaH2PO4, 150 mM NaCl adjusted to pH 6.0 with HCl
The recombinant human DPPI was diluted in TAGZyme buffer to 1 U/ml (38.1 μg/ml, respectively), and then activated by mixing in a 1:2 ratio with a Cysteamine aqueous solution (2 mM) and incubating for 5 min at room temperature.
Five uL test compound (final concentration 0.1 nM to 100 μM) in aqua bidest (containing 4% DMSO, final DMSO concentration 1%) were mixed with 10 μL of DPPI in MES buffer (final concentration 0.0125 ng/μL) and incubated for 10 min. Then, 5 μL of substrate in MES buffer (final concentration 50 μM) were added. The microtiter plates were then incubated at room temperature for 30 min. Then, the reaction was stopped by adding 10 μL of Gly-Phe-DMK in MES-buffer (final concentration 1 μM). The fluorescence in the wells was determined using a Molecular Devices SpectraMax M5 Fluorescence Reader (Ex 360 nm, Em 460 nm) or an Envision Fluorescence Reader (Ex 355 nm, Em 460 nm).
The analysis of the data was performed by calculating the percentage of fluorescence in the presence of test compound in comparison to the fluorescence of the vehicle control after subtracting the background fluorescence using the following formula: (RFU(sample)−RFU(background))*100/(RFU(control)−RFU(background))
Data from these calculations were used to generate IC50 values for inhibition of DPPI, respectively.

Sequence of recombinant human Cathepsin K (P43235 115-329): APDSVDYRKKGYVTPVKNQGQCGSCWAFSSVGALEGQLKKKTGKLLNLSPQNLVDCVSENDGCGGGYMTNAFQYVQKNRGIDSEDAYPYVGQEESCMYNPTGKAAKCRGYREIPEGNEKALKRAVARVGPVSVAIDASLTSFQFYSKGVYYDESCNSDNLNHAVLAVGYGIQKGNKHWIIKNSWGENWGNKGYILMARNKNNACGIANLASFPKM
Sequence of recombinant human DPPI (Cathepsin C) (P53634 231-394): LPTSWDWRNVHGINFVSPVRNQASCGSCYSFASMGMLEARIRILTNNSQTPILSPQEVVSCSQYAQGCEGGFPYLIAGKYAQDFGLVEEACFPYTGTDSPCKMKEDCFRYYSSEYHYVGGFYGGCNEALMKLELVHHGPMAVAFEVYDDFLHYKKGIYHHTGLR
Sequence of recombinant human DPPI (Cathepsin C) (P53634 395-463): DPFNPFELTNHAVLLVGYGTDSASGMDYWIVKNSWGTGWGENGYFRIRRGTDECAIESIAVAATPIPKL
Sequence of recombinant human DPPI (Cathepsin C) (P53634 25-134): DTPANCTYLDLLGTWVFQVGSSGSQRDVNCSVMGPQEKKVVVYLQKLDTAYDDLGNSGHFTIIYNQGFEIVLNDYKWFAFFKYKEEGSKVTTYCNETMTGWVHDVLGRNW

`CS(=O)(=O)c1cc(-c2ccc(C[C@@H](C#N)NC(=O)[C@H]3NC4CCC3CC4)c(F)c2)ccc1C#N` [Example 1, (2S)—N-[(1S)-1-cyano-2-[4-(4-cyano-3-methylsulfonyl-phenyl)-2-fluoro-phenyl]ethyl]-3-azabicyclo[2.2.2]octane-2-carboxamide]: the half-life at 1 μM in series [1] is 2 h. Further, the pIC50 was 6.87 in series [2] and 5.57 in series [3]. Take `N#C[C@H](Cc1ccc(-c2ccc(C(N)=O)cc2)cc1)NC(=O)[C@H]1NC2CCC1CC2` [Example 16]: in series [4], the pIC50 was 6.93.

Consider `N#Cc1cc(-c2ccc(C[C@@H](C#N)NC(=O)[C@H]3NC4CCC3CC4)cc2)ccn1` [Example 24], for which the pIC50 in series [4] was 6.60.

As to `CN1Cc2cc(-c3ccc(C[C@@H](C#N)NC(=O)[C@H]4NC5CCC4CC5)c(F)c3)ccc2S1(=O)=O` [Example 27], the pIC50 in series [4] was 7.13. With `N#C[C@H](Cc1ccc(-c2cccc(C(N)=O)c2)cc1)NC(=O)[C@H]1NC2CCC1CC2` [Example 18], the pIC50 is 6.88 in series [4] and 5.01 in series [3].

Turning to `CS(=O)(=O)c1ccc(-c2ccc(C[C@@H](C#N)NC(=O)[C@H]3NC4CCC3CC4)cc2)cc1` [Example 15], the pIC50 in series [4] is 6.96. On to `COCCN1C(=O)Cc2ccc(-c3ccc(C[C@@H](C#N)NC(=O)[C@H]4NC5CCC4CC5)cc3)cc21` [Example 21], for which, in series [4], the negative logarithm of the IC50 (pIC50) was 6.80. `CCS(=O)(=O)c1ccc(-c2ccc(C[C@@H](C#N)NC(=O)[C@H]3NC4CCC3CC4)cc2)cc1` [Example 22]: the pIC50 in series [4] was 6.78. For the compound `CS(=O)(=O)c1ccc(-c2ccc(C[C@@H](C#N)NC(=O)C3NC4CCC3CC4)c(F)c2)cc1C#N` (stereo partly drawn) [Example 26], the pIC50 in series [4] is 7.56. Take `N#C[C@H](Cc1ccc(-c2ccc3c(c2)CCNC3=O)cc1)NC(=O)[C@H]1NC2CCC1CC2` [Example 20]: in series [4], the pIC50 was 6.86. Take `N#C[C@H](Cc1ccc(-c2ccc(S(N)(=O)=O)cc2)cc1)NC(=O)[C@H]1NC2CCC1CC2` [Example 13]: the negative-log IC50 (pIC50) in series [4] was 6.99; in series [3] it was 4.97. Consider `N#C[C@H](Cc1ccc(-c2ccc3c(c2)CC(=O)N3)cc1)NC(=O)[C@H]1NC2CCC1CC2` [Example 14], for which, in series [4], the pIC50 is 6.99. As for `CN1Cc2ccc(-c3ccc(C[C@@H](C#N)NC(=O)[C@H]4NC5CCC4CC5)c(F)c3)cc2C1` [Example 25], the pIC50 in series [4] is 7.01. As to `N#Cc1ccc(-c2ccc(C[C@@H](C#N)NC(=O)[C@H]3NC4CCC3CC4)cc2)cc1` [Example 9], the half-life at 1 μM in series [1] was above 2.17 h. Moreover, the negative logarithm of the IC50 (pIC50) in series [4] was 7.14; in series [3], 4.83. Regarding `N#C[C@H](Cc1ccc(-c2cc(F)c(F)c(F)c2)cc1)NC(=O)[C@H]1NC2CCC1CC2` [Example 23], the pIC50 in series [4] is 6.61. On the same count and under the same terms, as for `CN1C(=O)Cc2ccc(-c3ccc(C[C@@H](C#N)NC(=O)[C@H]4NC5CCC4CC5)cc3)cc21` [Example 6], the figure is 7.28. On to `CS(=O)(=O)Nc1ccc(-c2ccc(C[C@@H](C#N)NC(=O)[C@H]3NC4CCC3CC4)cc2)cc1` [Example 17], for which the pIC50 in series [4] is 6.91; in series [3], 5.17.

As a reminder, the pIC50 is the negative decadic logarithm of the IC50, by convention in mol/L.
